Data as given in patent US20190100549A1, “FLAVONOIDE-TYPE COMPOUNDS BEARING AN O-RHAMNOSYL RESIDUE” (Universitaet Hamburg, priority 2016, published 2019).
Where “and” joins values, the source holds several entries; their conditions need not be identical. Equal entries are not always repeated.

What was measured:
Assay type in all cases: cell-based, human
[1] = tested on: hydrogen peroxide (DHR) in NHEK cells; assay: Protection against UV-induced H2O2 stress in NHEK (DHR probe, flow cytometry); details: 180 mJ/cm^2 UVB (2839 mJ/cm^2 UVA); for H2O2 (AU) (DHR GMFI): single values
Method: (§1) Pre-incubated NHEK were incubated with the test compound for 24 h. Then the specific fluorescence probe for the measurement of hydrogen peroxide (DHR) or lipid peroxides (C11-fluor) was added and incubated for 45 min. Irradiation occurred with in H2O2 determination UVB at 180 mJ/cm^2 (+UVA at 2839 mJ/cm^2) or UVB at 240 mJ/cm^2 (+UVA at 3538 mJ/cm^2) in lipid peroxide, respectively, using a SOL500 Sun Simulator lamp. After irradiation the cells were post-incubated for 30 min before flow-cytometry analysis.

[2] = tested on: lipid peroxides (C11-fluor) in NHEK cells; assay: Protection against UV-induced lipid peroxide in NHEK (C11-fluor probe, flow cytometry); details: 50 μM, 240 mJ/cm^2 UVB (3538 mJ/cm^2 UVA)
Method: as §1

PGE2 = PGE2 release in stimulated NHEK (ELISA); details: Homo sapiens, NHEK; PMA 1 μg/ml; 10^−6 M
Method: NHEK were pre-incubated for 24 h with the test compounds. The medium was replaced with the NHEK culture medium containing the inflammatory inducers (PMA or Poly I:C) and incubated for another 24 hours. Positive and negative controls ran in parallel. At the endpoint the culture supernatants were quantified of secreted IL-8, PGE2 and TNF-α by means of ELISA.

VEGF = VEGF release in NHDF (ELISA); details: 1 μg/ml, 72 hours
Method: (§2) Tests were performed with normal human dermal fibroblast cultures at the 8th passage. Cells were grown in DMEM supplemented with glutamine at 2 mM, penicillin at 50 U/mL and streptomycin (50 μg/mL) and 10% of fetal calf serum (FCS) at 37° C. in a 5% CO2 atmosphere.
(§3) Fibroblasts were cultured for 24 hours before the cells were incubated with the test compounds for further 72 hours. After the incubation the culture supernatants were collected in order to measure the released quantities of procollagen I, VEGF, and fibronectin by means of ELISA. Reference test compounds were vitamin C (procollagen I), PMA (VEGF), and TGF-β (fibronectin).

procollagen I = assay: Procollagen I synthesis in NHDF (ELISA); details: 20 μg/ml, 72 hours
Method: as §2, §3

fibronectin = assay: Fibronectin synthesis in NHDF (ELISA); details: 10 ng/ml, 72 hours
Method: as §2, §3

## COc1ccc(O)c(C(C)(C)C)c1 [BHA]
[1]; 100 μM
  H2O2 % irradiated control: 42%
  H2O2 (AU) Mean: 776 AU
  H2O2 Protection %: 70%
  H2O2 (AU) (DHR GMFI): 740 AU and 834 AU and 754 AU

## Cc1cc(C(C)(C)C)c(O)c(C(C)(C)C)c1 [BHT]
[2]
  C11-fluor(AU) Mean (1/GMFI): 3.3E−04 AU
  lipid peroxide % Irradiated control: 72%
  lipid peroxide Protection %: 37%
[2]; single values
  C11-fluor(AU) 1/GMFI: 3.2E−04 AU and 3.3E−04 AU and 3.5E−04 AU
  C11-fluor(AU) GMFI: 3139 AU and 3047 AU and 2877 AU

## C[C@@H]1C[C@H]2[C@@H]3CCC4=CC(=O)C=C[C@]4(C)[C@@]3(F)[C@@H](O)C[C@]2(C)[C@@]1(O)C(=O)CO [Dexamethasone, reference compound]
PGE2
  inhibition at 1 µM: 9%

## COc1ccc2c(c1)c(CC(=O)O)c(C)n2C(=O)c1ccc(Cl)cc1 [Indomethacin, reference compound]
PGE2
  inhibition at 1 µM: 106%

## CCCCCCCCCCCCCC(=O)O[C@@H]1[C@@H](C)[C@@]2(O)[C@@H](C=C(CO)C[C@]3(O)C(=O)C(C)=C[C@@H]23)[C@@H]2C(C)(C)[C@]12OC(C)=O [PMA, reference compound]
VEGF
  Mean VEGF: 148 pg/mL
  VEGF % Control: 205%
  VEGF % Stimulation: 105%
VEGF; single values
  VEGF: 150 pg/mL and 143 pg/mL

## Cc1c(C)c2c(c(C)c1O)CC[C@@](C)(CCC[C@H](C)CCC[C@H](C)CCCC(C)C)O2 [Vit. E]
[1]; 50 μM
  H2O2 % irradiated control: 35%
  H2O2 (AU) Mean: 655 AU
  H2O2 Protection %: 78%
  H2O2 (AU) (DHR GMFI): 628 AU and 650 AU and 687 AU

## O=C1O[C@H]([C@@H](O)CO)C(O)=C1O [Vitamin C]
Procollagen I
  Procollagen I % Control: 316%
  Procollagen I % Stimulation: 216%
  Procollagen I Mean: 5272 ng/mL
Procollagen I; single values
  Procollagen I: 4739 ng/mL and 5854 ng/mL and 5225 ng/mL

## TGF-β
fibronectin
  Fibronectin % Control: 181%
  Fibronectin % Stimulation: 81%
fibronectin; single values
  Fibronectin: 10870 ng/mL and 11178 ng/mL and 11128 ng/mL
